pEC50, pIC50: −log10 of the molar value.
Assays:
[1] = test system: A673 cells; assay: Cell viability and proliferation, A673 cells (crystal violet); format: cell-based; details: cell proliferation IC50 in NHDF cells over A673 cells, 72 h
Protocol: Small molecule splicing modulators were tested in a dose-response assay using A673 cells and NHDF cells.
A673 cells or NHDF cells were first plated in 96-well plastic tissue culture plates (10,000 cells per well). The cells were treated with vehicle alone (DMSO), or increasing concentrations of SMSM compounds for 72 h. Following treatment, cell proliferation was determined using a crystal violet assay. The relative cell proliferation at each concentration was determined.

[2] = Maximum tolerable dose study (survival, body weight); format: in vivo; details: mice
Protocol: Survival of mice after administration of SMSMs after 10 or 11 days was assessed.
Tolerance of the drug treatments was determined by measuring the weight of the mice during the period of drug administration. Body weight was measured prior to tumor inoculation and prior to the treatment administration and then daily. The changes in the final weight of the mice for the SMSM treatments were determined.

[3] = test system: A673 xenografts; assay: A673 xenografts in nude mice, tumor growth inhibition; format: in vivo; details: A673 xenograft (FIGS. 14A-C)
Protocol: Dose range and time course studies comparing anti-neoplastic effects of SMSM−167 and SMSM−151 against vehicle were conducted.
Female NCrNu mice were used. Age range of enrolment was 7-10 weeks. A total of 75 animals were for the studies.
The A673 tumor cell line was maintained in vitro as a monolayer culture. […] The cells growing in an exponential growth phase were harvested and counted for tumor inoculation.
Each mouse were inoculated into a right flank with the single cell suspension of 95% viable tumor cells (5×10^6 cells/mouse) in serum-free RPMI 1640 Media for tumor development. Treatments were administered when mean tumor size reached approximately 75 mm^3.
Before commencement of treatment, all animals were weighed and assigned to treatment groups using a randomization procedure. Mice were randomized into groups based upon their tumor sizes to ensure that each group had approximately the same mean tumor size and range of tumor size.
After inoculation, the animals were checked daily for morbidity and mortality. At the time of routine monitoring, the animals were checked for any effects of tumor growth on normal behavior such as mobility, food and water consumption, body weight gain/loss, eye/hair matting and any other abnormal effects. Deaths and observed clinical signs were recorded.
Body weight were measured prior to tumor inoculation and prior to the treatment administration and then daily. Tumor size were measured 2-3 times per week in two dimensions using a caliper, and the volume were expressed in mm^3 using the formula: V=0.5×a×b^2 where a and b are the long and short diameters of the tumor, respectively.
(§1) Studies were terminated when the tumor size in the vehicle treated group reached 2,000 mm^3. Each mouse was bled at 2 hrs after the last dose and at least 50 μl of plasma were collected from each mouse. All of the collected plasma samples and retainer dosing solutions for each dose level were used for bioanalytical measurements. All tumors were also collected and weighed. One necrosis-free tumor fragment of approximately 50 mg was taken from each tumor and flash-frozen for RNA isolation. The remaining tumor was flash frozen for PK analysis.
Studies were performed to assess the effects of in vivo SMSM treatment on glioblastoma, breast, pancreatic, prostate, melanoma, lymphoma and Ewing sarcoma tumors. Studies were also performed to assess the effects of in vivo SMSM treatment on mRNA levels. Immunocompromised nude mice with pre-existing glioblastoma, breast, pancreatic, prostate, melanoma, lymphoma and Ewing sarcoma xenografts were treated with vehicle or SMSMs. Tumor tissues from subcutaneous xenografts were broken into a powder using a BioPulverizer (Biospec Products, Inc.). After SMSM treatment, mRNA was isolated from the xenografts and was analyzed by qRT-PCR.
as §1, with “Tumor size was measured 2 times per week in two dimensions using a caliper. Studies” for “Studies”, “plasma was” for “plasma were”
The effects of in vivo SMSM treatments on pre-existing subcutaneous glioblastoma, breast, pancreatic, prostate, melanoma, lymphoma and Ewing sarcoma xenografts were assessed. For these in vivo experiments, 1×10^6Raji, A375, A673, MDA-MB-231, BxPC-3, PC-3 or U87 (cells re-suspended in 100 μl PBS were subcutaneously injected into the flanks of nude mice. When the tumor reached approximately 100 mm^3 (volume=(¾)(π)(length/2)(width/2)^2), the treatments indicated in the tables below were initiated. […]

[4] = test system: A-673 cells; assay: A-673 cell viability; format: cell-based; details: Homo sapiens, A673
Protocol: FIG. 9A depicts a graph of viable A-673 cells when incubated with the indicated concentrations of an SMSM.

[5] = test system: IKBKAP; assay: IKBKAP splicing assay (IKBKAP^FL and IKBKAP^Δ20 mRNA, qPCR); format: cell-based; details: 24 hours
Protocol: Various cells lines were treated with the SMSMs described herein. RNA was then isolated, cDNA synthesized, qPCR performed and the levels of IKBKAP targets of the SMSMs were detemined.
On the day of the experiment, a 96-well plate was seeded with the cell lines of interest. The cells were diluted with full growth media to a concentration of 2.0×10^5 cells/mL and 100 μL of cells were added to each well (20,000 cells per well). The cells were treated with a compound immediately after plating.
The compounds were then added to the cell plate using the HP compound dispenser. In the initial experiment, atop concentration of 10 μM and an 8 point 4-fold dilution scheme was used. […]
The qPCR was performed using a QuantStudio 6 instrument (ThermoFisher) and the following cycling conditions and according to the tables below. All samples and standards were analyzed in triplicate. […]
The determined IKBKAP^FL and IKBKAP^Δ20 isoform quantities were then used to determine the IKBKAP^FL: IKBKAP^Δ20 ratio at increasing SMSM compound concentrations. The PPIA quantities were used in the normalization to account of cell proliferation effects of the compounds.
An assay to measure the IKBKAP^FL mRNA and IKBKAP^Δ20 mRNA simultaneously in cell wells was performed. The RNA values were measured relative to DMSO control and also included a housekeeping gene, PPIA to ensure data was consistent. […]

[6] = test system: FoxM1 A mRNA; assay: FoxM1 splicing in cells: FoxM1 A mRNA increase (exon excluded); format: cell-based; details: read-out: Splice EC50 (nM) FoxM1 A mRNA increase (exon excluded)
Protocol: (§2) FIG. 7 depicts a graph of relative transcript levels of FOXM1 isoform A (represses cancer) and FOXM1 isoform B (promotes cancer) in A-673 cells incubated with the indicated concentrations of an SMSM.

[7] = test system: FoxM1 BC mRNA; assay: FoxM1 splicing in cells: FoxM1 BC mRNA decrease (exon included); format: cell-based; details: read-out: Splice IC50 (nM) FoxM1 BC mRNA decrease (exon included)
Protocol: as §2

CN(c1ccc(-c2cc(F)c(-c3cn[nH]c3)cc2O)nn1)[C@H]1C[C@]2(C)CC[C@](C)(C1)N2 [compound 167, 2-(6-(((1R,3s,5S)-1,5-dimethyl-8-azabicyclo[3.2.1]octan-3-yl)(methyl)amino)pyridazin-3-yl)-4-fluoro-5-(1H-pyrazol-4-yl)phenol]
Ratio NHDF/A673 IC50 [1]: >2,500
Outcome ([2]; IP, 0.1 mg/kg, BIDx12): All survived
Outcome ([2]; IP, 0.3 mg/kg, BIDx12): All survived
Outcome ([2]; IP, 1 mg/kg, QDx12): All survived
Outcome ([2]; PO, 5 mg/kg, QDx12): All survived
TGI(%) ([3]; 5 mg/kg BID PO, Day 7): 65.56%
TGI(%) ([3]; 5 mg/kg BID PO, Day 11): 56.92%
TGI(%) ([3]; 5 mg/kg BID PO, Day 14): 55.14%
TGI(%) ([3]; 5 mg/kg BID PO, Day 18): 59.68%
TGI(%) ([3]; 7.5 mg/kg BID PO, Day 7): 59.45%
TGI(%) ([3]; 7.5 mg/kg BID PO, Day 11): 64.75%
TGI(%) ([3]; 7.5 mg/kg BID PO, Day 14): 64.43%
TGI(%) ([3]; 7.5 mg/kg BID PO, Day 18): 72.80%
TGI(%) ([3]; 10 mg/kg QD PO, Day 7): −32.72%
TGI(%) ([3]; 10 mg/kg QD PO, Day 11): 3.85%
TGI(%) ([3]; 10 mg/kg QD PO, Day 14): −2.13%
TGI(%) ([3]; 10 mg/kg QD PO, Day 18): 41.77%

Oc1cc(-c2cn[nH]c2)ccc1-c1ccc(O[C@@H]2C[C@H]3CCC[C@@H](C2)N3)nn1 [compound 276, 2-(6-(((1R,3s,5S)-9-azabicyclo[3.3.1]nonan-3-yl)oxy)pyridazin-3-yl)-5-(1H-pyrazol-4-yl)phenol]
IC50 [4]: 101 to 250 nM

Oc1cc(-c2cn[nH]c2)c(F)cc1-c1ccc(O[C@@H]2C[C@H]3CCC[C@@H](C2)N3)nn1 [compound 278, 2-(6-(((1R,3s,5S)-9-azabicyclo[3.3.1]nonan-3-yl)oxy)pyridazin-3-yl)-4-fluoro-5-(1H-pyrazol-4-yl)phenol]
pEC50 ([5]; IKBKAP^FL mRNA increase): 6.46 to 7.00
pIC50 ([5]; IKBKAP^Δ20 mRNA decrease): > 6.70

Oc1cc(-c2cn[nH]c2)ccc1-c1ccc(O[C@H]2C[C@H]3CCC[C@@H](C2)N3)nn1 [compound 277, 2-(6-(((1R,3r,5S)-9-azabicyclo[3.3.1]nonan-3-yl)oxy)pyridazin-3-yl)-5-(1H-pyrazol-4-yl)phenol]
IC50 [4]: > 1000 nM
EC50 [6]: > 1000 nM
IC50 [7]: > 1000 nM

Oc1cc(C2C=NN=N2)ccc1-c1ccc(O[C@@H]2C[C@H]3CC[C@@H](C2)N3)nn1 (stereo partly drawn) [compound 253, 2-(6-(((1R,3s,5S)-8-azabicyclo[3.2.1]octan-3-yl)oxy)pyridazin-3-yl)-5-(1H-1,2,3-triazol-4-yl)phenol]
IC50 [4]: 501 to 1000 nM
EC50 [6]: 251 to 500 nM
IC50 [7]: 251 to 500 nM
